{
  "source": "patent US7160902B2",
  "about": "“Amide derivatives and methods of their use” (Adolor Corporation, priority 2003, dated 2007)",
  "key": {"[1]": {"biological_target": "T1, cloned human κ opioid receptor (Homo sapiens, UniProt P41145)", "T1 construct": "expressed in transfected cells", "T1 sequence (P41145 whole entry)": "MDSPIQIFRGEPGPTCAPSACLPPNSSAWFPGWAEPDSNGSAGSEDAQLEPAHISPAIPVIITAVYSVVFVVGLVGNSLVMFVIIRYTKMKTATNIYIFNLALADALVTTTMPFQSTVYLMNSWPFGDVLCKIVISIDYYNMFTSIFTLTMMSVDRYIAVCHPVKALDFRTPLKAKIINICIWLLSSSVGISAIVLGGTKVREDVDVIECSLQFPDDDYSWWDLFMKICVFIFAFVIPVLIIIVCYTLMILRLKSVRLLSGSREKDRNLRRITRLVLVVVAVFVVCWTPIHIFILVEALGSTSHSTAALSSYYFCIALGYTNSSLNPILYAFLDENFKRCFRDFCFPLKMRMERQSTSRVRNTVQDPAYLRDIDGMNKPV", "test": "In vitro binding assay, inhibition of [3H]diprenorphine binding, κ receptor", "details": "[3H]diprenorphine displacement; read-out: Ki against the human κ receptor", "protocol": "(§1) The potencies of the compounds of the invention were determined by testing the ability of a range of concentrations of each compound to inhibit the binding of the non-selective opioid antagonist, [^3H]diprenorphine, to the cloned human μ, κ, and δ opioid receptors, expressed in separate cell lines. IC50 values were obtained by nonlinear analysis of the data using GraphPad Prism version 3.00 for Windows (GraphPad Software, San Diego). Ki values were obtained by Cheng-Prusoff corrections of IC50 values.\n(§2) The receptor binding method was a modification of the method of K. Raynor et al. (Mol. Pharmacol. 1994, 45, 330–334). […] The filters were rinsed 4 times with 1 mL of cold 50 mM Tris HCl, pH 7.8 and radioactivity remaining on the filters determined by scintillation spectroscopy. Nonspecific binding was determined by the minimum values of the titration curves and was confirmed by separate assay wells containing 10 μM naloxone. Ki values were determined by Cheng-Prusoff corrections of IC50 values derived from nonlinear regression fits of 12 point titration curves using GraphPad Prism® version 3.00 for Windows (GraphPad Software, San Diego, Calif.).\n(§3) To determine the equilibrium dissociation constant for the inhibitors (Ki), radioligand bound (cpm) in the presence of various concentrations of test compounds was measured. […]"}, "[2]": {"test_system": "formalin-induced flinching", "test": "In vivo formalin-induced nociception assay", "design": "species or system male Sprague-Dawley rats", "details": "dose of 300 μg, i.paw", "excerpt": "Administration of formalin into the paw results in a localized inflammation and a pain response that is moderate in intensity and continuous in duration. Unlike many other assays of nociception, the formalin assay measures tonic pain that is a result of tissue injury, and therefore is a model that is more relevant to clinical pain states in humans (See Tjolsen et al., Pain 51: 5–17, 1992). In the rat the response to formalin-induced pain consists of spontaneous flinching behavior, characterized by paw lifting and paw shaking, and a rapid vibration of the paw after drawing it under the body. […] The early or acute phase lasts from 0–5 minutes post-formalin and is followed by a quiescent period lasting approximately 15 minutes. The tonic phase occurs from 20–35 minutes following formalin injection and is the interval where the number of flinching responses is maximal. […]\nInflammation is induced by subcutaneous injection of […] of a 5% formalin solution into the dorsal surface of the right hind paw of male Sprague-Dawley rats weighing 70–90 g. Injections of drug are given into the dorsal surface of the paw prior to formalin injection, and flinching behavior is quantified by counting the number of responses that occur during the tonic phase of pain, lasting from 20–35 minutes after formalin injection. […]"}, "[3]": {"biological_target": "T2, cloned human μ opioid receptor (Homo sapiens, UniProt P35372)", "T2 construct": "expressed in transfected cells", "T2 sequence (P35372 whole entry)": "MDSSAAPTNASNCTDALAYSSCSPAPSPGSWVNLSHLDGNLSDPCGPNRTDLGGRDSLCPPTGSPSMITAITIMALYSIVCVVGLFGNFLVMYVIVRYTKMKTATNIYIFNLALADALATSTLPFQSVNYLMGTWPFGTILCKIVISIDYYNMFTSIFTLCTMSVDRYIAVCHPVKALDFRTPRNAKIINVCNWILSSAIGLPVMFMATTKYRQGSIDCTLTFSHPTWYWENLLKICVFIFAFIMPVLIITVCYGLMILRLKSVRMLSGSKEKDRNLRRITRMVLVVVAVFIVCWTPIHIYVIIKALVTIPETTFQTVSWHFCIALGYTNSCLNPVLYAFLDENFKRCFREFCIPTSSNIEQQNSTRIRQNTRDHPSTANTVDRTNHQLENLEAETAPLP", "test": "In vitro binding assay, inhibition of [3H]diprenorphine binding, μ receptor", "details": "κ versus μ", "protocol": "as §1, §2, §3"}, "cloned human κ receptors": {"biological_target": "T3, cloned human κ receptors (Homo sapiens, UniProt P41145)", "T3 construct": "expressed in transfected cells", "T3 sequence (P41145 whole entry)": "as the sequence (P41145 whole entry) above", "test": "Stimulation of [35S]GTPγS binding to membranes", "format": "biochemical", "protocol": "The potencies of the agonists were assessed by their abilities to stimulate [^35S]GTPγS binding to membranes containing the cloned human κ receptors.\nTo determine the EC50 value, which was the concentration to give half-maximal stimulation of [^35S]GTPγS binding, the amount of [^35S]GTPγS bound in the presence of various concentrations of agonists was measured. The EC50 value was then determined."}, "[4]": {"test_system": "acetic acid-induced writhing", "test": "Acetic acid-induced writhing", "format": "in vivo, male CF-1 mice", "details": "Mus musculus, sc; administered subcutaneously; read-out: ED50, blocking of acetic acid-induced writhing", "protocol": "Injection of acetic acid into the peritoneal cavity is used as the noxious stimulus, and the number of writhing responses that occur in response to acetic acid are counted in order to quantify the response to pain.\nThe writhing assay is adapted from the procedure originally described by Taber, et al. (J. Pharmacol. Exp. Ther. 169: 29–38, 1986), using male CF-1 mice weighing 20–25 g. Animals are treated with various doses of drugs prior to the administration of an i.p. injection of 0.6% acetic acid solution. Mice are then placed into observation chambers and the number of writhing responses, as defined by a full hind limb extension and retraction, are recorded.\nThe mean number of writhing responses is calculated for vehicle-treated control mice, and the percent inhibition (% I) of writhing is calculated for each mouse that is treated with drug using the following formula: % I=100×(mean control writhing responses−individual test responses)(mean control writhing responses) (f) Hyperalgesia Induced by Tape Stripping"}, "[5]": {"biological_target": "T4, cloned human δ opioid receptor (Homo sapiens, UniProt P41143)", "T4 construct": "expressed in transfected cells", "T4 sequence (P41143 whole entry)": "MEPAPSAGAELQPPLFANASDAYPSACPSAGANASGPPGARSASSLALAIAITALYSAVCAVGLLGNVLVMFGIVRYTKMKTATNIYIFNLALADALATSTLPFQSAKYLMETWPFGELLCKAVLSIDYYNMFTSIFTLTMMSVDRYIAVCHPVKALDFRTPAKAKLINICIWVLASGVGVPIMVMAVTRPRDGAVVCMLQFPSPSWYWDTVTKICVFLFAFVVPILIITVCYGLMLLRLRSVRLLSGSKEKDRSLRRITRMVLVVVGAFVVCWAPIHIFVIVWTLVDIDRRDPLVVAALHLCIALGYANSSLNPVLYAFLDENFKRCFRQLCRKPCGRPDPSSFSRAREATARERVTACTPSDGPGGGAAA", "test": "In vitro binding assay, inhibition of [3H]diprenorphine binding, δ receptor", "details": "κ versus δ", "protocol": "as §1, §2, §3"}},
  "data": [
    {"molecule": "CN(C(=O)CNc1ccccc1)[C@H](CN1CC[C@H](O)C1)c1ccccc1", "note": "[Example 1, N-{2-[(S)-3-Hydroxy-pyrrolidin-1-yl]-(S)-1-phenyl-ethyl}-N-methyl-2-phenylamino-acetamide]", "values": [
      {"measurement": "Ki", "setting": "[1]", "result": 0.17, "unit": "nM"},
      {"measurement": "% A (percent antagonism of formalin-induced flinching)", "setting": "[2]", "result": 96.2, "unit": "%"},
      {"measurement": "selectivity versus the human μ receptor", "setting": "[3]", "result": "> 100", "unit": "×"},
      {"measurement": "functional activity at κ receptor", "setting": "cloned human κ receptors", "result": "agonist"},
      {"measurement": "EC50", "setting": "cloned human κ receptors; half-maximal stimulation of [35S]GTPγS binding, read-out: EC50 (agonist)", "result": 0.05, "unit": "nM"},
      {"measurement": "ED50", "setting": "[4]", "result": 0.017, "unit": "mg/kg"},
      {"measurement": "selectivity versus the human δ receptor", "setting": "[5]", "result": "> 100", "unit": "×"}
    ]}
  ]
}
